For one assay, the system named is HL60 cells. Briefly: Antiproliferation activity on HL60 cells (CellTiter-Glo, 6 days). In kind it is cell-based. The following applies: incubated for 6 days. From the text: Experimental purpose: to detect the antiproliferation activity of the compound to be tested on HL60 cells.
Experimental materials: RPMI-1640 culture medium, fetal bovine serum, penicillin/streptomycin antibiotics purchased from Wisent. CellTiter-Glo (chemiluminescent cell viability assay reagent) reagents purchased from Promega. HL60 cell line purchased from Nanjing Cobioer Co., Ltd. Nivo multi-label reader (PerkinElmer).
Experimental method: HL60 cells were planted in a white 384-well plate, 40 μL of cell suspension per well, 600 HL60 cells were contained therein. The cell plate was placed in a carbon dioxide incubator for overnight culture. The compounds to be tested were diluted 5-fold with a pipet until the 10th concentration, i.e., diluted from 2 mM to 1.024 nM, double duplicate well experiment was set. 78 μL of the culture medium was added to an intermediate plate, and then 2 μL per well of the serially diluted compounds were transferred to the corresponding positions on the intermediate plate, after mixing, 10 μL per well was transferred to the cell plate. The cell plate was incubated in a carbon dioxide incubator for 6 days. Another cell plate was prepared and the signal value on the day of dosing was read as the maximum value (Max value in the equation below) to participate in the data analysis. 20 μL of chemiluminescent cell viability assay reagent was added to each well of this cell plate, which was incubated at room temperature for 10 minutes to stabilize the luminescence signal. The multi-label reader was used for reading.
(§1) Data analysis: the equation (Sample-Min)/(Max-Min)*100% was used to convert the original data into the inhibition rate, the IC50 value can be obtained by curve fitting of four-parameters (“log(inhibitor) vs. response—Variable slope” mode in GraphPad Prism)).
A general note: Cellular ATP, detected with luciferase, serves as a proxy for viable cell number.

Assay [1] relates to human small cell lung cancer NCI-H1417 xenograft tumor model. Briefly: In vivo pharmacodynamic study on NCI-H1417 subcutaneous xenograft tumor in CB-17 SCID mice. As to conditions: compound 6 hydrochloride 1.5 mg/kg oral once a day, cisplatin 1 mg/kg i.p. twice a week. The protocol:
The purpose of the experiment was to evaluate the in vivo efficacy of the compounds of the present disclosure on subcutaneous xenograft tumor of human small cell lung cancer NCI-H1417 cells in a CB-17 SCID mouse model.
Human small cell lung cancer NCI-H1417 cells (ATCC) were cultured in vitro in a single layer, the culture conditions were RPMI-1640 culture medium supplemented with 10% fetal bovine serum, 37° C. 5% CO2. When the cell saturation reached 80%-90%, the cells were collected, counted, and inoculated.
0.2 mL of 10×10^6 NCI-H1417 cells were subcutaneously inoculated into the right back of each mouse (PBS: Matrigel=1:1). Group administration was started when the average volume reached 100-150 mm^3.
The vehicle used in the experiment was 0.5% methylcellulose solution, the preparation method was: 5 g of methylcellulose was weighed and dissolved in 800 mL ultrapure water, stirred evenly and made up to 1000 mL with ultrapure water. The test substance was dissolved in a solvent and prepared into a uniform solution of a certain concentration, and stored at 4° C.
Cisplatin (Cisplatin, manufacturer Qilu Pharmaceutical Co., Ltd., 10 mg/bottle freeze-dried powder for injection, lot number 7D011A8) was added to 10 mL 0.9% NaCl to make a 1 mg/mL mother liquor, and stored at room temperature and protected from light. The mother liquor was aliquoted into 0.63 mL and stored at room temperature. 5.67 mL 0.9% NaCl was added to one of the 0.63 mL mother liquor to make a 0.1 mg/mL solution.
The experimental indicator is to investigate whether tumor growth was inhibited, delayed, or cured. Tumor diameters were measured with a vernier caliper twice a week. The tumor volume was calculated by the calculation formula: V=0.5a×b^2, a and b respectively represent the long and short diameters of the tumor.
The anti-tumor effect of the compounds was evaluated by TGI (%). TGI (%) can reflect the tumor growth inhibition rate. TGI (%) calculation: TGI (%)=[1-(the average tumor volume at the end of the administration in a treatment group—the average tumor volume at the beginning of the administration in the treatment group)/(the average tumor volume at the end of the treatment of the solvent control group—the average tumor volume at the beginning of the treatment of the solvent control group)]×100%.

For another assay, the system named is NCI-H1417 cells. Briefly: Antiproliferation activity on NCI-H1417 cells (CellTiter-Glo, 10 days). In kind it is cell-based, human. As to conditions: incubated for 10 days. The procedure: Experimental purpose: to detect the antiproliferation activity of the compounds on NCI-H1417 cells.
Experimental materials: RPMI 1640 culture medium, fetal bovine serum, Promega CellTiter-Glo reagent. NCI-H1417 cell line purchased from ATCC. Envision multi-label reader (PerkinElmer).
Experimental method: the compounds were dissolved to 10 mM, then the compounds were diluted 5 times with DMSO in a compound plate, the compounds were diluted 3-fold with Bravo from a starting concentration of 2 mM to the 10th concentration, 250 nL of the solutions were transferred to the upper and lower duplicate wells on a blank 384 cell plate by Echo transfer plate, cell suspension of per well/1000 cells/50 μL was added to the transferred 250 nL DMSO/compound, the compounds were diluted 200-fold, i.e., the initial action concentration was 10 μM. The cell plate was placed in a carbon dioxide incubator and incubated for 10 days. 25 μL of Promega CellTiter-Glo reagent was added to each well on the cell plate and was shaken at room temperature for 10 minutes to stabilize the luminescence signal. Readings were performed by PerkinElmer Envision multi-label analyzer.
Data analysis: the equation (Max-Ratio)/(Max-Min)*100% was used to convert the original data into the inhibition rate, the value of IC50 can be obtained by curve fitting of four-parameters (the 205 mode in XLFITS, iDBS).

A further assay concerns MV-4-11 cells. Put plainly: Antiproliferation activity on MV-4-11 cells (CellTiter-Glo, 6 days). In kind it is cell-based. As to conditions: incubated for 6 days.
Source text: Experimental purpose: to detect the antiproliferation activity of the compound to be tested on MV-4-11 cells.
Experimental materials: IMDM culture medium, fetal bovine serum, penicillin/streptomycin antibiotics purchased from Wisent. CellTiter-Glo (chemiluminescent cell viability assay reagent) reagents purchased from Promega. MV-4-11 cell line was purchased from Nanjing Cobioer Co., Ltd. Nivo Multi-Marker Analyzer (PerkinElmer).
Experimental method: MV-4-11 cells were planted in a white 96-well plate, 80 μL of cell suspension per well, which contained 6000 MV-4-11 cells. The cell plate was placed in a carbon dioxide incubator for overnight culture.
The compounds to be tested were diluted 5-fold with a pipet until the 8th concentration, i.e., diluted from 2 mM to 25.6 nM, double duplicate well experiment was set. 78 μL of the culture medium was added to an intermediate plate, and then 2 μL per well of the serially diluted compounds were transferred to the corresponding positions on the intermediate plate, after mixing, 20 μL per well was transferred to the cell plate. The cell plate was incubated in a carbon dioxide incubator for 6 days. Another cell plate was prepared and the signal value on the day of dosing was read as the maximum value (Max value in the equation below) to participate in the data analysis. 25 μL of the chemiluminescent cell viability assay reagent was added to each well of this cell plate, which was incubated at room temperature for 10 minutes to stabilize the luminescence signal. The multi-label analyzer was used for reading.
as §1

Structures can show the parent of a compound that is named as a salt.

In general, IC50 refers to the concentration that gives 50% inhibition. The TGI is how far tumour growth fell short of that in controls. Read a high TGI as a stronger effect on the tumour. Consider `O=C(O)c1ccc(CN2CCC3(CC2)CC(N[C@@H]2C[C@H]2c2ccccc2)CO3)cc1` (some centres unmarked) [Hydrochloride of the compound 6], for which the IC50 in the assay on HL60 cells was determined as 14.7 nM; with NCI-H1417 cells, 9.11 nM; with MV-4-11 cells, 3.21 nM. In assay [1] (CB-17 SCID mice), the “Tumor volume mean ± SEM (28th day)” value is 187 ± 14 mm^3. Also, in assay [1] (tumor growth inhibition rate, 28th day), the TGI stood at 79.2%.

These data come from patent publication US11649245B2, “Cyclopropylamine compound as LSD1 inhibitor and use thereof” (HELIOEAST PHARMACEUTICAL CO., LTD., priority 2018, dated 2023).
